Data taken from patent US20060030615A1, “Progesterone receptor modulators comprising pyrrole-oxindole derivatives and uses thereof” (Wyeth, priority 2004, published 2006).

Legend:
progesterone receptor = target: T1, progesterone receptor (Homo sapiens, UniProt P06401); test: T47D Cell Alkaline Phosphatase Assay; assay type: cell-based; details: antagonist mode, T47D cells, in the presence of 1 nM progesterone, 24 hours
T1 construct: Effects of Progestins and Antiprogestins on Alkaline Phosphatase Activity in T47D cells; endogenous in cells; host or cells: T47D cells
T1 sequence (P06401 1-933): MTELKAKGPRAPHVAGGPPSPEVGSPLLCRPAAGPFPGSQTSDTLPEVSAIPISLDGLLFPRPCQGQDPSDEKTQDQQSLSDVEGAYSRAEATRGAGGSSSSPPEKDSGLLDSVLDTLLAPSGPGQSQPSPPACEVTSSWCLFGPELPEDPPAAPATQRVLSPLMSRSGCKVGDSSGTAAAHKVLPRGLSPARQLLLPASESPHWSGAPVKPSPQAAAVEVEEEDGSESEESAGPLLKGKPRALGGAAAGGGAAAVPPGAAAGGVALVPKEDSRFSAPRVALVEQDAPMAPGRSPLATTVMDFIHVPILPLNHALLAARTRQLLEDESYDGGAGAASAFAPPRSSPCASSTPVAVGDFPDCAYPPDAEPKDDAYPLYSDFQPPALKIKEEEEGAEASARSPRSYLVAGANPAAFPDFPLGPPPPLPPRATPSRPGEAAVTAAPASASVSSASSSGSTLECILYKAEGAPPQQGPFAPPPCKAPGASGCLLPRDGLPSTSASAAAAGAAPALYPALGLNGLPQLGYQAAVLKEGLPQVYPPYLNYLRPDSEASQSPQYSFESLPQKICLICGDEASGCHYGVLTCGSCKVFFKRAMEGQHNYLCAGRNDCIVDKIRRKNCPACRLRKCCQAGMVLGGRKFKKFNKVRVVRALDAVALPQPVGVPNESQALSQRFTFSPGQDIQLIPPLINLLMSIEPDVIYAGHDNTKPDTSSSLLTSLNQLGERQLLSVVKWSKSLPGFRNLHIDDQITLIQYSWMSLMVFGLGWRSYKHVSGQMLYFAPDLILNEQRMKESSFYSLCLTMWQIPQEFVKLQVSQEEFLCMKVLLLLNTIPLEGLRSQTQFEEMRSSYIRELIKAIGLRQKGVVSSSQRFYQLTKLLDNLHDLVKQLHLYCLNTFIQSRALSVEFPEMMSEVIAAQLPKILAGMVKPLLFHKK
Experimental: A. Effects of Progestins and Antiprogestins on Alkaline Phosphatase Activity in T47D cells (T47D Alkaline Phosphatase Assay)
The molecules of the present invention are anticipated to be active in the antagonist mode in the T47D alkaline phosphatase assay at concentrations of 3 μM or lower.
Culture medium: DMEM:F12 (1:1) (GIBCO, BRL) supplemented with 5% (v/v) charcoal stripped fetal bovine serum (not heat-inactivated), 100 U/ml penicillin, 100 μg/ml streptomycin, and 2 mM GlutaMax (GIBCO, BRL).
Alkaline phosphatase assay buffer: I. 0.1M Tris-HCI, pH 9.8, containing 0.2% Triton X-100, 0.1M Tris-HCI, pH 9.8, containing 4 mM p-nitrophenyl phosphate (Sigma).
2. Cell Culture And Treatment:
Frozen T47D cells are thawed in a 37° C. water bath and diluted to 280,000 cells/ml in culture medium. To each well in a 96-well plate (Falcon, Becton Dickinson Labware), 180 μl of diluted cell suspension is added. Twenty μl of reference or test compounds diluted in the culture medium is then added to each well. When testing for progestin antagonist activity, reference antiprogestins or test compounds are added in the presence of 1 nM progesterone. The cells are incubated at 37° C. in a 5% CO2 humidified atmosphere for 24 hours. For high throughput screening, one concentration of each compound will be tested at 0.3 μg/ml. Based on an average molecular weight of 300 g/mol for the compounds in the library, the concentration is approximately 1 μM. Subsequently, active compounds will be tested in dose response assays to determine EC50 and IC50.
3. Alkaline Phosphatase Enzyme Assay:
At the end of treatment, the medium is removed from the plate. Fifty μl of assay buffer I is added to each well. The plates are shaken in a titer plate shaker for 15 min. Then 150 μl of assay buffer II is added to each well. Optical density measurements are taken at 5 min intervals for 30 min. at a test wavelength of 405 nm.
4. Analysis of Dose-Response Data.
For reference and test compounds, a dose response curve is generated for dose vs. the rate of enzyme reaction (slope). Square root-transformed data are used for analysis of variance and nonlinear dose response curve fitting for both agonist and antagonist modes. Huber weighting is used to down-weight the effects of outliers. EC50 or IC50 values are calculated from the retransformed values. JMP software (SAS Institute, Inc.) is used for both one-way analysis of variance and non-4 linear dose response analysis in both single dose and dose response studies.
Progesterone and trimegestone are reference progestins and RU486 is the reference antiprogestin. All reference compounds are run in full dose response curves and the EC50 and IC50 values are calculated.

[1] = tested on: rat uterine decidualization; test: Rat Decidualization Assay (mature ovariectomized rats); assay type: in vivo; details: rat decidual assay, po
Experimental: B. Progestational and Antiprogestational Activity in Mature Ovariectomized Rats (Rat Decidualization Assay)
This assay is used to evaluate the effect of progestins and antiprogestins on rat uterine decidualization and compare the relative potencies of various test compounds.
Test compounds are dissolved in 100% ethanol and mixed with corn oil (vehicle). Stock solutions of the test compounds in oil (Mazola™) are then prepared by heating (˜80° C.) the mixture to evaporate ethanol. Test compounds are subsequently diluted with 100% corn oil or 10% ethanol in corn oil prior to the treatment of animals. No difference in decidual response was found when these two vehicles were compared. […]
Approximately 24 hr after the third injection, decidualization is induced in one of the uterine horns of anesthetized rats by scratching the antimesometrial luminal epithelium with a blunt 21 G needle. […] Approximately 24 hr following the final treatment, rats are sacrificed by CO asphyxiation and body weight measured. […]
In agonist mode, the increase in weight of the decidualized uterine horn is calculated by D-horn/C-horn and logarithmic transformation is used to maximize normality and homogeneity of variance. […] EC50 is calculated from the transformed value. […] IC50 is calculated from the retransformed value. […]

melting point [°C]	IC50 (progesterone receptor) [nM]	SMILES	ED50 [1] [mg/k]
233 to 235	3.3	CCC1(CC)C(=O)Nc2ccc(-c3ccc(C#N)n3C)cc21 [5-(3,3-Diethyl-2-oxo-2,3-dihydro-1H-indol-5-yl)-1-methyl-1H-pyrrole-2-carbonitrile]	–
–	27.2	CC1(C)C(=O)Nc2ccc(-c3ccc(C#N)[nH]3)cc21 [5-(3,3-Dimethyl-2-oxo-2,3-dihydro-1H-indol-5-yl)-1H-pyrrole-2-carbonitrile]	–
–	5.7	CCC1C(=O)Nc2ccc(-c3ccc(C#N)n3C)cc21 (racemic) [5-(3-ethyl-2-oxo-2,3-dihydro-1H-indol-5-yl)-1-methyl-1H-pyrrole-2-carbonitrile]	–
–	300	CC(C)(C)OC(=O)n1c(C#N)ccc1-c1ccc2c(c1)C1(CCCC1)C(=O)N2 [2-Cyano-5-(1,2-dihydro-2-oxospiro[cyclopentane-1,3-[3H]indol]-5-yl)-1H-pyrrole-1-carboxylic acid, tert-butyl ester]	–
–	3.2	CC[C@@]1(C)C(=O)Nc2ccc(-c3ccc(C#N)n3C)cc21 (single isomer, unassigned)	–
–	72.9	CN1C(=O)C(C)(C)c2cc(-c3ccc(C#N)[nH]3)ccc21 [5-(1,3,3-trimethyl-2-oxo-2,3-dihydro-1H-indol-5-yl)-1H-pyrrole-2-carbonitrile]	–
–	1	Cn1c(C#N)ccc1-c1ccc2c(c1)C1(CCC1)C(=O)N2 [1-methyl-5-(2′-oxo-1′,2′-dihydrospiro[cyclobutane-1,3′-indol]-5′-yl)-1H-pyrrole-2-carbonitrile]	–
–	6.1	CC[C@H]1C(=O)Nc2ccc(-c3ccc(C#N)n3C)cc21 (single isomer, unassigned)	–
–	20.4	Cn1c(C#N)ccc1-c1ccc2c(c1)CC(=O)N2 [1-methyl-5-(2-oxo-2,3-dihydro-1H-indol-5-yl)-1H-pyrrole-2-carbonitrile]	–
–	8.1	Cn1c(C#N)ccc1-c1ccc2c(c1)C1(CC1)C(=O)N2 [1-methyl-5-(2′-oxo-1′,2′-dihydrospiro[cyclopropane-1,3′-indol]-5′-yl)-1H-pyrrole-2-carbonitrile]	–
–	30	Cn1c(C#N)ccc1-c1ccc2c(c1)C1(CCCC1)C(=O)N2 [1-methyl-5-(2′-oxo-1′,2′-dihydrospiro[cyclopentane-1,3′-indol]-5′-yl)-1H-pyrrole-2-carbonitrile]	–
–	13.1	CC[C@@H]1C(=O)Nc2ccc(-c3ccc(C#N)n3C)cc21 (single isomer, unassigned)	–
–	13.3	CN1C(=O)C(C)(C)c2cc(-c3ccc(C#N)n3C)ccc21 [1-methyl-5-(1,3,3-trimethyl-2-oxo-2,3-dihydro-1H-indol-5-yl)-1H-pyrrole-2-carbonitrile]	–
–	60	N#Cc1ccc(-c2ccc3c(c2)C2(CCCC2)C(=O)N3)[nH]1 [5-(1,2-Dihydro-2-oxospiro[cyclopentane-1,3-[3H]indol]-5-yl)-1H-pyrrole-2-carbonitrile]	–
–	7.4	CC[C@]1(C)C(=O)Nc2ccc(-c3ccc(C#N)n3C)cc21 (single isomer, unassigned)	–
–	10	Cn1c(C#N)ccc1-c1ccc2c(c1)C(C)(C)C(=O)N2 [5-(3,3-dimethyl-2-oxo-2,3-dihydro-1H-indol-5-yl)-1-methyl-1H-pyrrole-2-carbonitrile]	0.2
